What was measured:
[1] = target: T1, Flag-PRL-2 (Homo sapiens, UniProt Q12974); assay: Immunocomplex PTPase assay, Flag-PRL-2 NIH3T3 transfectants; type: cell-based
T1 construct: expressed in transfected cells
Experimental: (§1) Immunocomplex PTPase assays were performed to assess the effects of sodium stibogluconate on intracellular PTPases. Cells were untreated or treated with sodium stibogluconate for 5 minutes, washed with fresh medium and then lysed in cold lysis buffer (50 mM Tris, pH 7.4; 150 mM NaCl; 1% NP40; 2 mM PMSF; 20 ,g/ml of Aprotinin). The lysates were incubated with an anti-Flag antibody in immunoprecipitation assays. The immunocomplexes were collected with protein G sepharose beads (Pharmacia) and washed in cold lysis buffer for 4 times. […] 100 μL of malachite green solution (UBI) was added to each reaction prior to measurement of OD660 to quantify the amounts of free phosphate cleaved by the PTPases from the peptide substrate (Pathak et al., J. Imumol. 167, 3391 (2001)). The remaining 10% contents of individual samples were analyzed by SDS-PAGE/Western blotting to quantify the relative amounts of the phosphatase proteins. […]
(§2) The effects of sodium stibogluconate on intracellular PTPases were assessed using NIH3T3 or WM9 transfectants. […]

[2] = system: WM9 PRL-1R86 transfectant; assay: Growth of WM9 PRL-1R86 transfectant (MTT); type: cell-based, human; details: 50 or 100 μg/ml, 6 days
Experimental: NIH3T3 (Yi, et al., Blood 85, 87 (1995)), WM9 (Forsberg, et al., Proc. Nat. Acad Sci. USA 90, 393 (1993)), DU145 (Mickey, et al., Cancer Res. 37, 4049 (1977)), LoVo (Drewinko, et al., Cancer Res. 36, 467 (1976)), HEY (Buick, et al., Cancer Res. 45, 3668 (1985)), U251 (Yoshida, et al., Cancer 50, 410 (1982)), A549 (Giard, et al., J. Natl. Cancer Inst. 51, 1417 (1973)) and SK-N-SH (Helson, et al., Cancer Res. 35, 2594 (1975)) cell lines have been described and were cultured in RPMI 1640 supplemented with 10% fetal calf serum (FCS). For measurement of sodium stibogluconate effects on cell growth in vitro, cells were cultured in the absence (−) or presence (+) of various amounts of sodium stibogluconate for 6 days with viable cells quantified by MTT assays (Mosmann, J. Imunol. Methods 65, 55 (1983)). Percentages of growth inhibition by sodium stibogluconate were calculated (+/−×%).
The effects of sodium stibogluconate on intracellular PTPases were assessed using NIH3T3 or WM9 transfectants. NIH3T3 or WM9 cells were transfected with the pBabepuro vector (V) or pBabepuro expression constructs of Flag-tagged PRLs using Lipofectamine (BRL) following the manufacturer's procedures. […]

[3] = system: Stat1; assay: IFN-alpha-induced Stat1 tyrosine phosphorylation, DU145 cells; type: cell-based, human; details: DU145, 5 hours post-stimulation
Experimental: For induction of Stat1 tyrosine phosphorylation by IFN-alpha in the absence or presence of sodium stibogluconate, cells grown in 10% FCS RPMI 1640 medium at 37° C. were stimulated with IFN-alpha (50 u/ml) for various time points and treated with or without sodium stibogluconate for 5 minutes prior to termination by lysing the cells in cold lysis buffer (1% NP-40; 50 mM Tris, pH 7.4; 100 mM NaCl; 1 mM EDTA, 10% glycerol, 10 mM sodium molybdic acid and 4 mM AEBSF).
Cell lysates were prepared by lysing cells in cold lysis buffer for 30 min and cleared by centrifuging at 14,000 rpm at 4° C. for 15 min. For SDS-PAGE, cell lysates were mixed with equal volume of 2×SDS-PAGE sample buffer, heated at 90° C. for 5 min and separated in 10% SDS-PAGE gels. Cellular proteins in SDS-PAGE gels were transferred to nitrocellulose membrane (Schleicher & Schuell, Keene, N.H.), blocked in 5% milk, probed with antibodies and detected by using an enhanced chemiluminescence kit (ECL, Amersham, Arlington Heights, Ill.).

[4] = target: T2, PTP1B (Homo sapiens, UniProt P18031); assay: In vitro PTPase assay, GST/PTP1B fusion protein; type: biochemical; details: 0.1 to 1 μg/ml
T2 construct: purchased Upstate Biotechnology Inc. (Lake Placid, N.Y.)
T2 sequence (P18031 whole entry, species assumed, the tested form may be a part): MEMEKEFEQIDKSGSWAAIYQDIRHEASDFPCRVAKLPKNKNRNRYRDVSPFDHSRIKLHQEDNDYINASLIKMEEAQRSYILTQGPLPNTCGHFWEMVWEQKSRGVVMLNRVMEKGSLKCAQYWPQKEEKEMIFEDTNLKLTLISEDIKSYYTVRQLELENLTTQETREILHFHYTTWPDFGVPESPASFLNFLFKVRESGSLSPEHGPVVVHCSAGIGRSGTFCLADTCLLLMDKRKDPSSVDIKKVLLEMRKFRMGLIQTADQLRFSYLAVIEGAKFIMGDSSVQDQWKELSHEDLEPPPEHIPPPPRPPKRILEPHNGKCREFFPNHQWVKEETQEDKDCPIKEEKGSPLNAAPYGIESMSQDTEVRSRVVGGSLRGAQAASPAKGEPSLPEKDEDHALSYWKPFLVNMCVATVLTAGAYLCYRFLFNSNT
Experimental: In vitro PTPase activities were measured using the commercial protein tyrosine phosphatase assay kit (Upstate Biotechnology, Inc. (“UBI”)) following established procedure known to one of skill in the art. This assay measures the in vitro dephosphorylation of a synthetic phosphotyrosine peptide of the sequence Arg-Arg-Leu-Ile-Glu-Asp-Ala-Gle-Tyr-Ala-Ala-Arg-Gly, wherein the tyrosine is phosphorylated (SEQ ID NO: 3). Briefly, 0.01 μg of GST/PTPase fusion proteins was incubated in 50 μl of Tris buffer (10 mM Tris, pH 7.4) containing different concentrations of inhibitors or chemicals (0-1,000 μg/ml) at 22° C. for 10 minutes, followed by addition of 0.2 mM of the phosphotyrosine peptide and incubation at 22° C. for 18 hours. 100 μl of Malachite Green solution was added and incubated for 5 minutes, and the absorbance at 660 nm was measured after 5 minutes.

[5] = system: U266 cells; assay: Cell proliferation assay (MTT), U266 multiple myeloma cells; type: cell-based, human; details: day 6
Experimental: For cell proliferation assays, cells were grown in 10% FCS culture medium containing various amounts of IFNs and/or sodium stibogluconate in 96 well plates and cultured at 37° C. for 3 or 6 days as indicated. The numbers of viable cells in proliferation assays were determined by MTT assays as described in Phatak et al., J. Immunol. 167, 3391 (2001).

[6] = target: T3, Flag-PRL-3 (Homo sapiens, UniProt O75365); assay: Immunocomplex PTPase assay, Flag-PRL-3 NIH3T3 transfectants; type: cell-based; details: cells treated 5 min
T3 construct: expressed in transfected cells
T3 sequence (O75365 whole entry): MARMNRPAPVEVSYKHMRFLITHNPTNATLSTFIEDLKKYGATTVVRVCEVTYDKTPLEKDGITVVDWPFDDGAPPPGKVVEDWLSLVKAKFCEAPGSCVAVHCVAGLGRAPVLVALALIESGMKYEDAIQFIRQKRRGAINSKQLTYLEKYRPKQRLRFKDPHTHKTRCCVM
Experimental: as §1, §2

T1 sequence (Q12974 whole entry): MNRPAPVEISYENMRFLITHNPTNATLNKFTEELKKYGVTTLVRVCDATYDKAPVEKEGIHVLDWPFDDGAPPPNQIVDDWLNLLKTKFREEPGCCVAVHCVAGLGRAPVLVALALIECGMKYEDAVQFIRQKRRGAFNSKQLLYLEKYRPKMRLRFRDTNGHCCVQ

O.O.O.O.O.O.O.O.O.O=C([O-])[C@@H]1[O][Sb]2([O-])([O][Sb]34([OH])[O][C@H]([C@H](O)CO)[C@H]([O]3)[C@H](C(=O)[O-])[O]4)[O][C@H]([C@H](O)CO)[C@@H]1[O]2.[Na+].[Na+].[Na+] [sodium stibogluconate]
time for full removal of effect on intracellular PRL-2 activity ([1]; brief treatment, NIH3T3 transfectants): at least 24 hours
PTPase activity of anti-Flag immunocomplexes, Flag-PRL-2 ([1]; cells treated 5 min): lack of PTPase activity
growth inhibition of R86 cells at higher doses [2]: only modest growth inhibition
IFN-alpha-induced Stat1 tyrosine phosphorylation [3]: Enhanced
inhibition of PTP1B activity [4]: only modestly effective
IFN-alpha-induced growth inhibition of U266 cells in presence of drug [5]: augmentation of IFN-alpha-induced cell growth inhibition
growth inhibition of U266 cells by the drug by itself [5]: substantial growth inhibition activity
PTPase activity of anti-Flag immunocomplexes, Flag-PRL-3 [6]: lack of PTPase activity

From US20030161893A1, “PTPase inhibitors and methods of using the same” (priority 2001, published 2003)
